# Data: ChEMBL document CHEMBL3885881, “DrugMatrix”
# Organism: Rattus norvegicus
# Assay: DrugMatrix - Regimen: Daily Repeat
# Type: toxicity, organism-based, Sprague-Dawley
# Set-up: regimen Daily Repeat, gender Male, age 6-8 weeks
# Settings: in vivo, po, route oral GAVAGE, vehicle 100 % WATER; for ABSOLUTE BASOPHIL / ABSOLUTE EOSINOPHIL / ABSOLUTE LYMPHOCYTE / ABSOLUTE MONOCYTE / ABSOLUTE SEGMENTED NEUTROPHIL / BASOPHIL / EOSINOPHIL / ERYTHROCYTE COUNT / HEMATOCRIT / HEMOGLOBIN / LEUKOCYTE COUNT / LYMPHOCYTE / MEAN CORPUSCULAR HEMOGLOBIN / MEAN CORPUSCULAR HEMOGLOBIN CONCENTRATION / MEAN CORPUSCULAR VOLUME / MONOCYTE / NEUTROPHIL / NUCLEATED RED BLOOD CELLS / PLATELET COUNT: tissue Blood; for ALANINE AMINOTRANSFERASE / ALBUMIN / ALKALINE PHOSPHATASE / ASPARTATE AMINOTRANSFERASE / BLOOD UREA NITROGEN / CARBON DIOXIDE / CHLORIDE / CHOLESTEROL / CREATINE PHOSPHOKINASE / CREATININE / GLUCOSE / LACTATE DEHYDROGENASE / LIPASE / PHOSPHORUS / POTASSIUM / SODIUM / TOTAL BILIRUBIN / TOTAL PROTEIN / URIC ACID: tissue Plasma
# [1] = 0 mg/kg, 72 h, dose level Control, time 3 day
# [2] = 0 mg/kg, 120 h, dose level Control, time 5 day
# [3] = 11 mg/kg, 72 h, dose level Low, time 3 day
smiles,measurement,setting,value
CN(C)C(=O)Oc1cccc([N+](C)(C)C)c1.[Br-] [NEOSTIGMINE BROMIDE],ABSOLUTE BASOPHIL,[1],0 CELLS/uL
same,ABSOLUTE EOSINOPHIL,[1],32.5 CELLS/uL
same,ABSOLUTE LYMPHOCYTE,[1],9305.83 CELLS/uL
same,ABSOLUTE MONOCYTE,[1],43.83 CELLS/uL
same,ABSOLUTE SEGMENTED NEUTROPHIL,[1],817.83 CELLS/uL
same,BASOPHIL,[1],0%
same,EOSINOPHIL,[1],0.33%
same,ERYTHROCYTE COUNT,[1],5.38 x10E6/uL
same,HEMATOCRIT,[1],33.63%
same,HEMOGLOBIN,[1],13.17 G/DL
same,LEUKOCYTE COUNT,[1],10.2 x10E3/uL
same,LYMPHOCYTE,[1],91.17%
same,MEAN CORPUSCULAR HEMOGLOBIN,[1],24.5 pg
same,MEAN CORPUSCULAR HEMOGLOBIN CONCENTRATION,[1],39.13 G/DL
same,MEAN CORPUSCULAR VOLUME,[1],62.53 fL
same,MONOCYTE,[1],0.5%
same,NEUTROPHIL,[1],8%
same,NUCLEATED RED BLOOD CELLS,[1],0.17 /100WBC
same,PLATELET COUNT,[1],858 x10E3/uL
same,ALANINE AMINOTRANSFERASE,[1],55.67 u/L
same,ALBUMIN,[1],4.07 G/DL
same,ALKALINE PHOSPHATASE,[1],337 u/L
same,ASPARTATE AMINOTRANSFERASE,[1],84 u/L
same,BLOOD UREA NITROGEN,[1],13.17 mg/dL
same,CARBON DIOXIDE,[1],34.17 mmol/L
same,CHLORIDE,[1],99.33 MEQ/L
same,CHOLESTEROL,[1],78.83 mg/dL
same,CREATINE PHOSPHOKINASE,[1],576.83 u/L
same,CREATININE,[1],0.17 mg/dL
same,GLUCOSE,[1],152.67 mg/dL
same,LACTATE DEHYDROGENASE,[1],147.83 u/L
same,LIPASE,[1],9.5 u/L
same,PHOSPHORUS,[1],10.78 mg/dL
same,POTASSIUM,[1],6.34 MEQ/L
same,SODIUM,[1],144.12 MEQ/L
same,TOTAL BILIRUBIN,[1],0.18 mg/dL
same,TOTAL PROTEIN,[1],6.08 G/DL
same,URIC ACID,[1],0.65 mg/dL
same,ABSOLUTE BASOPHIL,[2],0 CELLS/uL
same,ABSOLUTE EOSINOPHIL,[2],31.17 CELLS/uL
same,ABSOLUTE LYMPHOCYTE,[2],7918.33 CELLS/uL
same,ABSOLUTE MONOCYTE,[2],58.33 CELLS/uL
same,ABSOLUTE SEGMENTED NEUTROPHIL,[2],725.5 CELLS/uL
same,BASOPHIL,[2],0%
same,EOSINOPHIL,[2],0.33%
same,ERYTHROCYTE COUNT,[2],5.32 x10E6/uL
same,HEMATOCRIT,[2],33.53%
same,HEMOGLOBIN,[2],13.17 G/DL
same,LEUKOCYTE COUNT,[2],8.73 x10E3/uL
same,LYMPHOCYTE,[2],90.33%
same,MEAN CORPUSCULAR HEMOGLOBIN,[2],24.82 pg
same,MEAN CORPUSCULAR HEMOGLOBIN CONCENTRATION,[2],39.33 G/DL
same,MEAN CORPUSCULAR VOLUME,[2],63.12 fL
same,MONOCYTE,[2],0.67%
same,NEUTROPHIL,[2],8.67%
same,NUCLEATED RED BLOOD CELLS,[2],0 /100WBC
same,PLATELET COUNT,[2],1144.83 x10E3/uL
same,ALANINE AMINOTRANSFERASE,[2],60.5 u/L
same,ALBUMIN,[2],3.97 G/DL
same,ALKALINE PHOSPHATASE,[2],343.17 u/L
same,ASPARTATE AMINOTRANSFERASE,[2],80.83 u/L
same,BLOOD UREA NITROGEN,[2],15 mg/dL
same,CARBON DIOXIDE,[2],31 mmol/L
same,CHLORIDE,[2],99.75 MEQ/L
same,CHOLESTEROL,[2],71.5 mg/dL
same,CREATINE PHOSPHOKINASE,[2],237.17 u/L
same,CREATININE,[2],0.17 mg/dL
same,GLUCOSE,[2],137 mg/dL
same,LACTATE DEHYDROGENASE,[2],146.17 u/L
same,LIPASE,[2],11.5 u/L
same,PHOSPHORUS,[2],10.13 mg/dL
same,POTASSIUM,[2],6 MEQ/L
same,SODIUM,[2],145 MEQ/L
same,TOTAL BILIRUBIN,[2],0.13 mg/dL
same,TOTAL PROTEIN,[2],5.82 G/DL
same,URIC ACID,[2],0.62 mg/dL
same,ABSOLUTE BASOPHIL,[3],0 CELLS/uL
same,ABSOLUTE EOSINOPHIL,[3],0 CELLS/uL
same,ABSOLUTE LYMPHOCYTE,[3],8155 CELLS/uL
same,ABSOLUTE MONOCYTE,[3],60.33 CELLS/uL
same,ABSOLUTE SEGMENTED NEUTROPHIL,[3],851.33 CELLS/uL
same,BASOPHIL,[3],0%
same,EOSINOPHIL,[3],0%
same,ERYTHROCYTE COUNT,[3],5.22 x10E6/uL
same,HEMATOCRIT,[3],32.5%
same,HEMOGLOBIN,[3],12.8 G/DL
same,LEUKOCYTE COUNT,[3],9.07 x10E3/uL
same,LYMPHOCYTE,[3],90%
same,MEAN CORPUSCULAR HEMOGLOBIN,[3],24.53 pg
same,MEAN CORPUSCULAR HEMOGLOBIN CONCENTRATION,[3],39.4 G/DL
same,MEAN CORPUSCULAR VOLUME,[3],62.3 fL
same,MONOCYTE,[3],0.67%
same,NEUTROPHIL,[3],9.33%
same,NUCLEATED RED BLOOD CELLS,[3],0 /100WBC
same,PLATELET COUNT,[3],925.67 x10E3/uL
same,ALANINE AMINOTRANSFERASE,[3],55.67 u/L
same,ALBUMIN,[3],3.93 G/DL
same,ALKALINE PHOSPHATASE,[3],332.67 u/L
same,ASPARTATE AMINOTRANSFERASE,[3],81.67 u/L
same,BLOOD UREA NITROGEN,[3],13.67 mg/dL
same,CARBON DIOXIDE,[3],34.33 mmol/L
same,CHLORIDE,[3],98.67 MEQ/L
same,CHOLESTEROL,[3],82.67 mg/dL
same,CREATINE PHOSPHOKINASE,[3],214.67 u/L
same,CREATININE,[3],0.14 mg/dL
same,GLUCOSE,[3],150.67 mg/dL
same,LACTATE DEHYDROGENASE,[3],142.33 u/L
same,LIPASE,[3],9.33 u/L
same,PHOSPHORUS,[3],10.87 mg/dL
same,POTASSIUM,[3],5.64 MEQ/L
same,SODIUM,[3],144.73 MEQ/L
same,TOTAL BILIRUBIN,[3],0.17 mg/dL
same,TOTAL PROTEIN,[3],5.97 G/DL
same,URIC ACID,[3],0.47 mg/dL
